Common to all, as to assay type: in vivo
The subject of test [1] is Pseudoperonospora cubensis (PSPECU). The experiment in a line: Cucumber downy mildew foliar protectant test. To be noted: 200 ppm foliar, inoculated one day after treatment, read-out: Activity against fungal diseases PSPECU. As to the method:
The plants were inoculated with the fungus one day after treatment. ***=80-100% control; **=50-79% control; *=0-49% control. It will be understood by those in the art that the efficacy of the compounds against the foregoing fungi establishes the general utility of the compounds as fungicides. The activity of the compounds as effective fungicides was determined by applying the compounds to plants and observing control of fungal disease. […] All plants were inoculated with spores of the fungus the day after treatment, then incubated in an environment conducive to disease development. Disease severity was evaluated 4 to 25 days later, depending on the speed of disease development. The following experiments were performed in the laboratory to determine the fungicidal efficacy of the compounds of the invention. Cucumber Downy Mildew (Causal Agent Pseudoperonospora cubensis; Bayer Code […]): Cucumber plants (variety “Bush Champion' or 'Bush Pickle Hybrid') were grown from seed in a soil-less peat-based potting mixture (Metromix) until the first true leaf was 20-80% expanded. Each pot contained 1 seedling. These plants were sprayed until wet with the formulated test compound. On the following day, the leaves were inoculated with an aqueous suspension of downy mildew sporangia and the plants were kept in high humidity for one day to permit sporangia to germinate and infect the leaf. The plants were then incubated in a growth chamber until disease developed on untreated control plants. Table 1 presents the activity of typical compounds of the present invention when evaluated in these experiments. The effectiveness of the test compounds at controlling disease when sprayed on leaves was determined by assessing the severity of disease on treated plants, then converting the severity to percent control based on the level of disease on untreated, inoculated plants.

The test system of test [2] is Puccinia recondita tritici (PUCCRT). The experiment in a line: Leaf rust of wheat foliar protectant test. To be noted: read-out: Activity against fungal diseases PUCCRT; for pest or weed control at 200 ppm: 200 ppm foliar, inoculated one day after treatment; for pest or weed control at 3 ppm: foliar, Tested at 3 ppm (footnote a). As for the experimental part: (§1) The plants were inoculated with the fungus one day after treatment. ***=80-100% control; **=50-79% control; *=0-49% control. It will be understood by those in the art that the efficacy of the compounds against the foregoing fungi establishes the general utility of the compounds as fungicides. The activity of the compounds as effective fungicides was determined by applying the compounds to plants and observing control of fungal disease. […] All plants were inoculated with spores of the fungus the day after treatment, then incubated in an environment conducive to disease development. Disease severity was evaluated 4 to 25 days later, depending on the speed of disease development. The following experiments were performed in the laboratory to determine the fungicidal efficacy of the compounds of the invention. […] Each pot contained 3-8 seedlings. These plants were sprayed until wet with the formulated test compounds. On the following day, the leaves were inoculated with an aqueous spore suspension of Puccinia recondita tritici and the plants were kept in high humidity overnight to permit spores to germinate and infect the leaf. The plants were then transferred to a greenhouse until disease developed on untreated control plants. Table 1 presents the activity of typical compounds of the present invention when evaluated in these experiments. The effectiveness of the test compounds at controlling disease when sprayed on leaves was determined by assessing the severity of disease on treated plants, then converting the severity to percent control based on the level of disease on untreated, inoculated plants.

The test system of test [3] is Magnaporthe grisea = Pyricularia oryzae (PYRIOR). Description: whole plant or invertebrate. The conditions noted are these: foliar, read-out: Activity against fungal diseases PYRIOR.
Test [4] has as its system Septoria tritici (SEPTTR). Description: Septoria blotch of wheat foliar protectant test. The conditions noted are these: Zymoseptoria tritici, read-out: Activity against fungal diseases SEPTTR; for pest or weed control at 200 ppm: 200 ppm foliar, inoculated one day after treatment; for pest or weed control at 25 ppm: foliar, Tested at 25 ppm (footnote b). As for the experimental part: as §1, with “3-10” for “3-8”, “compound.” for “compounds.”, “Septoria” for “Puccinia recondita”, “(one day in a dark dew chamber followed by three days in a lighted dew chamber)” for “overnight”

Turning to `Cc1cc(Oc2cc(C(F)(F)F)ccn2)c(C)cc1CCNc1ncnc2c(F)ccc(F)c12` [Compound 19], the pest or weed control at 200 ppm in test [1], in test [2], in test [3] and in test [4] was 80 to 100% throughout.
Take `Oc1ccc(CCNc2ncnc3c(F)cc(F)c(F)c23)cc1` [Compound 27]: the pest or weed control at 200 ppm in test [1], in test [2], in test [3] and in test [4] was 0 to 49% each time.
For the molecule `Fc1cc(Oc2ncc(C(F)(F)F)cc2F)ccc1CCNc1ncnc2c(F)ccc(F)c12` [Compound 122], the pest or weed control at 200 ppm was in the range of 80 to 100% in test [1], 80 to 100% in test [2] and 50 to 79% in test [3]. Besides, the pest or weed control at 25 ppm in test [4] lay within 80 to 100%.
With `COc1ccc(C(C)Nc2ncnc3c(F)ccc(F)c23)cc1` (centres unmarked) [Compound 120], the values for the pest or weed control at 200 ppm in test [2] and in test [4] were 80 to 100% and 0 to 49%, respectively.
Consider `CC(Cc1ccc(Oc2ncc(C(F)(F)F)cc2F)cc1)Nc1ncnc2c(F)ccc(F)c12` (centres unmarked) [Compound 137], for which, in test [2], the pest or weed control at 3 ppm was 50 to 79%. Moreover, the pest or weed control at 25 ppm in test [4] lay within 80 to 100%.
For `COc1cc(CCNc2ncnc3c(F)cc(F)c(F)c23)ccc1O` [Compound 33] the same measures were 0 to 49% and 0 to 49%.
With `Fc1ccc(F)c2c(NCCc3ccc(Oc4cc(C(F)(F)F)ncn4)cc3)ncnc12` [Compound 109], the pest or weed control at 200 ppm in test [2], in test [3] and in test [4] was 80 to 100% throughout.
Take `CC(CNc1ncnc2c(F)ccc(F)c12)c1ccc(Oc2ccc(C(F)(F)F)cn2)cc1` (centres unmarked) [Compound 143]: in test [2], the pest or weed control at 3 ppm lay in the range of 0 to 49%. Also, in test [4], the pest or weed control at 25 ppm lay within 80 to 100%.
For `Cc1ccnc(Oc2ccc(CCNc3ncnc4c(F)ccc(F)c34)cc2)c1` [Compound 128] the same measures were 80 to 100% and 50 to 79%.
For the molecule `CC(CNc1ncnc2c(F)ccc(F)c12)c1ccc(Oc2cc(C(F)(F)F)ccn2)cc1` (centres unmarked) [Compound 144], the pest or weed control at 3 ppm in test [2] lay within 80 to 100%. Moreover, the pest or weed control at 25 ppm in test [4] lay within 80 to 100%.
As for `Fc1ccc(F)c2c(NCCc3ccc(Oc4cncc(C(F)(F)F)c4)cc3)ncnc12` [Compound 123], the pest or weed control at 3 ppm in test [2] was in the range of 80 to 100%. Also, the pest or weed control at 25 ppm in test [4] is 80 to 100%.
As for `CC(Cc1ccc(Oc2cnccc2C(F)(F)F)cc1)Nc1ncnc2c(F)ccc(F)c12` (centres unmarked) [Compound 138], in test [2], the pest or weed control at 3 ppm lay within 80 to 100%. The pest or weed control at 25 ppm in test [4] lay within 80 to 100%.
Turning to `CC(Cc1ccc(Oc2cc(C(F)(F)F)ncn2)cc1)Nc1ncnc2c(F)ccc(F)c12` (centres unmarked) [Compound 135], the pest or weed control at 3 ppm in test [2] is 80 to 100%. The pest or weed control at 25 ppm in test [4] was 80 to 100%.
In the case of `Fc1ccc(F)c2c(NCCc3ccc(Oc4ccnc(C(F)(F)F)c4)cc3)ncnc12` [Compound 71], in test [2], the pest or weed control at 3 ppm lay in the range of 80 to 100%. Moreover, the pest or weed control at 25 ppm in test [4] was 80 to 100%.
Consider `Oc1ccc(CCNc2ncnc3c(F)ccc(F)c23)cc1Br` [Compound 38], for which the pest or weed control at 200 ppm in test [1], in test [2] and in test [3] was 0 to 49% throughout.
For the molecule `Fc1ccc(F)c2c(OCCc3ccc(OCC(F)(F)F)cc3)ncnc12` [Compound 121], the pest or weed control at 3 ppm in test [2] lay in the range of 0 to 49%. For the same molecule, in test [4], the pest or weed control at 25 ppm lay within 50 to 79%.
For `CC(Cc1ccc(Oc2cc(C(F)(F)F)ccn2)cc1)Nc1ncnc2c(F)ccc(F)c12` (centres unmarked) [Compound 134] the same measures were 80 to 100% and 80 to 100%.
With `COc1ccc(C(C)CNc2ncnc3c(F)ccc(F)c23)cc1` (centres unmarked) [Compound 139], in test [2], the pest or weed control at 3 ppm was in the range of 0 to 49%. In test [4], the pest or weed control at 25 ppm lay in the range of 0 to 49%.
On to `Cc1cc(CCNc2ncnc3c(F)ccc(F)c23)ccc1Oc1nc(C(F)(F)F)nc(F)c1F` [Compound 102], for which the values for the pest or weed control at 200 ppm in test [2], in test [3] and in test [4] were 80 to 100%, 80 to 100% and 0 to 49%, respectively.
Turning to `Fc1ccc(F)c2c(NCCc3ccc(Oc4cc(Cl)nc(C(F)(F)F)n4)cc3)ncnc12` [Compound 103], the pest or weed control at 200 ppm in test [2] was 80 to 100%; in test [3], 80 to 100%; in test [4], 0 to 49%.
As for `Fc1ccc(F)c2c(NCCc3ccc(Oc4ncccc4C(F)(F)F)cc3)ncnc12` [Compound 13], the pest or weed control at 3 ppm in test [2] was in the range of 80 to 100%. Besides, the pest or weed control at 25 ppm in test [4] fell in the range of 80 to 100%.
Regarding `CC(Cc1ccc(Oc2ccc(C(F)(F)F)cn2)cc1)Nc1ncnc2c(F)ccc(F)c12` (centres unmarked) [Compound 136], in test [2], the pest or weed control at 3 ppm was in the range of 80 to 100%. The pest or weed control at 25 ppm in test [4] was 80 to 100%.
In the case of `CC(CNc1ncnc2c(F)ccc(F)c12)c1ccc(Oc2cc(C(F)(F)F)ncn2)cc1` (centres unmarked) [Compound 142], the pest or weed control at 3 ppm in test [2] lay within 80 to 100%. The pest or weed control at 25 ppm in test [4] was 80 to 100%.
Regarding `CC(CNc1ncnc2c(F)ccc(F)c12)c1ccc(Oc2cnccc2C(F)(F)F)cc1` (centres unmarked) [Compound 141], the pest or weed control at 3 ppm in test [2] is 80 to 100%. For the same molecule, the pest or weed control at 25 ppm in test [4] is 80 to 100%.
`Oc1cccc(CCNc2ncnc3c(F)ccc(F)c23)c1` [Compound 35]: the results for the pest or weed control at 200 ppm in test [1] and in test [2] were 80 to 100% and 50 to 79%, respectively.
`Cc1cc(C(F)(F)F)cc(Oc2cc(C)c(CCNc3ncnc4c(F)ccc(F)c34)cc2C)n1` [Compound 22]: the pest or weed control at 200 ppm in test [2] was 80 to 100%; in test [3] it was 50 to 79%. For the same molecule, the pest or weed control at 25 ppm in test [4] lay in the range of 80 to 100%.
For `COc1cc(CCNc2ncnc3c(F)ccc(F)c23)ccc1Oc1cc(Cl)nc(C(F)(F)F)n1` [Compound 104], the pest or weed control at 200 ppm in test [2] was in the range of 80 to 100%; in test [3] it was 80 to 100%; in test [4], 0 to 49%.
As to `COC(=O)c1cnc(Oc2ccc(CCNc3ncnc4c(F)ccc(F)c34)cc2C)cc1C(F)(F)F` [Compound 36], the pest or weed control at 200 ppm in test [1] and in test [2] was 80 to 100% throughout. For the same molecule, the pest or weed control at 25 ppm in test [4] fell in the range of 0 to 49%.
With `COc1ccc2c(c1)CC(Nc1ncnc3c(F)ccc(F)c13)C2` (centres unmarked) [Compound 105], the figures for the pest or weed control at 200 ppm in test [2], in test [3] and in test [4] were 80 to 100%, 80 to 100% and 0 to 49%, respectively.
`CC(CNc1ncnc2c(F)ccc(F)c12)c1ccc(Oc2ncc(C(F)(F)F)cc2F)cc1` (centres unmarked) [Compound 145]: the pest or weed control at 3 ppm in test [2] lay in the range of 0 to 49%. The pest or weed control at 25 ppm in test [4] lay in the range of 50 to 79%.
As to `Fc1cc(F)c2ncnc(NCCc3ccc(Oc4cc(C(F)(F)F)ccn4)c(Cl)c3)c2c1F` [Compound 92], the pest or weed control at 200 ppm in test [2] was in the range of 50 to 79%; in test [3] it was 80 to 100%; in test [4], 50 to 79%.

(Values after patent publication US9000162B2, “5,8-difluoro-4-(2-(4-(heteroaryloxy)-phenyl)ethylamino)quinazolines and their use as agrochemicals” (Dow AgroSciences LLC, priority 2008, dated 2015).)
